Consider 21 compounds from US20200079766A1, “MONOCYCLIC OGA INHIBITOR COMPOUNDS” (Janssen Pharmaceutica NV, priority 2016, published 2020).

The target of assay [1] is T1, recombinant human Meningioma Expressed Antigen 5 (MGEA5), also referred to as O-GlcNAcase (OGA) (Homo sapiens, UniProt O60502).
T1 construct: Full length OGA enzyme was purchased at OriGene (cat # TP322411); purchased OriGene TP322411
T1 sequence (O60502 1-916): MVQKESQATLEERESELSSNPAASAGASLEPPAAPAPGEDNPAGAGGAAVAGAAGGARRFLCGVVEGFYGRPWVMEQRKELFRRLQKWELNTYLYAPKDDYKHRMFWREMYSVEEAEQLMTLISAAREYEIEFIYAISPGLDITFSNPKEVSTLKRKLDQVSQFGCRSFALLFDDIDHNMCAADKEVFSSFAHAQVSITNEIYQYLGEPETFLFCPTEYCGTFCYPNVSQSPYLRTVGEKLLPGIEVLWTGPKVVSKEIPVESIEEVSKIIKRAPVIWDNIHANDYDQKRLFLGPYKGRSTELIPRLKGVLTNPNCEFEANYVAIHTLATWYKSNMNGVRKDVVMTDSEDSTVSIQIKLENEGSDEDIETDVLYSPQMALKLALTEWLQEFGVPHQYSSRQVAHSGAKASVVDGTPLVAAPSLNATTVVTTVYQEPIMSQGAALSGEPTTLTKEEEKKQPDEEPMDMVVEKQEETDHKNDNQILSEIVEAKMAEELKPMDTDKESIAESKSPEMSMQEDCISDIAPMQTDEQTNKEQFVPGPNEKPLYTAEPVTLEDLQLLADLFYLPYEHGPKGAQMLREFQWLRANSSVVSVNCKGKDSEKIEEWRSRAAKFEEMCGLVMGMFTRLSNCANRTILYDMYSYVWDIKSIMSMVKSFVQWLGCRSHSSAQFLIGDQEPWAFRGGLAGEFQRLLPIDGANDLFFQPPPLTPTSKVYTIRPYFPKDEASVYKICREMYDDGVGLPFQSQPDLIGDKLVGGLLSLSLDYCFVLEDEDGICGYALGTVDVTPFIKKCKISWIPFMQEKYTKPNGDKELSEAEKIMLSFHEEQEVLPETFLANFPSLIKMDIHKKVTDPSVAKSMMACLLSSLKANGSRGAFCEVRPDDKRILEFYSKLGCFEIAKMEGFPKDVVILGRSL
Description: OGA biochemical assay: inhibition of FM-GlcNAc hydrolysis, fluorescence; protocol A (10 nM OGA, 1 h) or protocol B (2 nM OGA, 6 h). The following applies: Enzymatic protocol B (2 nM OGA, 6 h); for IC50: read-out: Enzymatic hOGA, pIC50 (converted). An excerpt:
The assay is based on the inhibition of the hydrolysis of fluorescein mono-3-D-N-Acetyl-Glucosamine (FM-GlcNAc) (Mariappa et al. 2015, Biochem J 470:255) by the recombinant human Meningioma Expressed Antigen 5 (MGEA5), also referred to as O-GlcNAcase (OGA). The hydrolysis FM-GlcNAc (Marker Gene technologies, cat # M1485) results in the formation of ß-D-N-glucosamineacetate and fluorescein. The fluorescence of the latter can be measured at excitation wavelength 485 nm and emission wavelength 538 nm. An increase in enzyme activity results in an increase in fluorescence signal. Full length OGA enzyme was purchased at OriGene (cat # TP322411). The enzyme was stored in 25 mM Tris.HCl, pH 7.3, 100 mM glycine, 10% glycerol at −20° C. Thiamet G and GlcNAcStatin were tested as reference compounds (Yuzwa et al. 2008 Nature Chemical Biology 4:483; Yuzwa et al. 2012 Nature Chemical Biology 8:393). The assay was performed in 200 mM Citrate/phosphate buffer supplemented with 0.005% Tween-20. 35.6 g Na2HPO42H2O (Sigma, # C0759) were dissolved in 1 L water to obtain a 200 mM solution. 19.2 g citric acid (Merck, #1.06580) was dissolved in 1 L water to obtain a 100 mM solution. pH of the sodiumphosphate solution was adjusted with the citric acid solution to 7.2. The buffer to stop the reaction consists of a 500 mM Carbonate buffer, pH 11.0. 734 mg
FM-GlcNAc were dissolved in 5.48 mL DMSO to obtain a 250 mM solution and was stored at −20° C. OGA was used at a 10 nM (protocol A) or 2 nM (protocol B) concentration and FM-GlcNAc at a 100 uM final concentration. Dilutions were prepared in assay buffer.
50 nl of a compound dissolved in DMSO was dispensed on Black Proxiplate™ 384 Plus Assay plates (Perkin Elmer, #6008269) and 3 μl fl-OGA enzyme mix added subsequently. Plates were pre-incubated for 60 min at room temperature and then 2 μl FM-GlcNAc substrate mix added. […] Plates were briefly centrifuged for 1 min at 1000 rpm and incubate at room temperature for 1 h (10 nM OGA, protocol A) or 6 h (2 nM OGA, protocol B). To stop the reaction 5 μl STOP buffer were added and plates centrifuge again 1 min at 1000 rpm. Fluorescence was quantified in the Thermo Scientific Fluoroskan Ascent or the PerkinElmer EnVision with excitation wavelength 485 nm and emission wavelength 538 nm.
For analysis a best-fit curve is fitted by a minimum sum of squares method. From this an IC50 value and Hill coefficient was obtained. High control (no inhibitor) and low control (saturating concentrations of standard inhibitor) were used to define the minimum and maximum values.

Assay [2] deals with OGA in HEK293 cells inducible for P301L mutant human Tau (isoform 2N4R). Kind of assay: OGA cellular assay: immunocytochemical detection of O-GlcNAcylated proteins (CTD110.6 antibody) after 6 h incubation. The assay is classed as cell-based. The note with it: for Emax / EC50: Homo sapiens, HEK293, 6 h; for EC50: read-out: Cellular hOGA, pEC50 (converted). The procedure: HEK293 cells inducible for P301L mutant human Tau (isoform 2N4R) were established at Janssen. Thiamet-G was used for both plate validation (high control) and as reference compound (reference EC50 assay validation). OGA inhibition is evaluated through the immunocytochemical (ICC) detection of O-GlcNAcylated proteins by the use of a monoclonal antibody (CTD110.6; Cell Signaling, #9875) detecting O-GlcNAcylated residues as previoulsy described (Dorfmueller et al. 2010 Chemistry & biology, 17:1250). Inhibition of OGA will result in an increase of O-GlcNAcylated protein levels resulting in an increased signal in the experiment. Cell nuclei are stained with Hoechst to give a cell culture quality control and a rough estimate of immediate compounds toxicity, if any. ICC pictures are imaged with a Perkin Elmer Opera Phenix plate microscope and quantified with the provided software Perkin Elmer Harmony 4.1.
Cells were propagated in DMEM high Glucose (Sigma, # D5796) following standard procedures. 2 days before the cell assay cells are split, counted and seeded in Poly-D-Lysine (PDL) coated 96-wells (Greiner, #655946) plate at a cell density of 12,000 cells per cm^2 (4,000 cells per well) in 100 μl of Assay Medium (Low Glucose medium is used to reduce basal levels of GlcNAcylation) (Park et al. 2014 The Journal of biological chemistry 289:13519). At the day of compound test medium from assay plates was removed and replenished with 90 μl of fresh Assay Medium. 10 μl of compounds at a 10 fold final concentration were added to the wells. Plates were centrifuged shortly before incubation in the cell incubator for 6 hours. DMSO concentration was set to 0.2%. Medium is discarded by applying vacuum. For staining of cells medium was removed and cells washed once with 100 μl D-PBS (Sigma, # D8537). From next step onwards unless other stated assay volume was always 50 μl and incubation was performed without agitation and at room temperature. Cells were fixed in 50 μl of a 4% paraformaldehyde (PFA, Alpha aesar, #043368) PBS solution for 15 minutes at room temperature. […] Before analysis samples were washed 2 times manually for 5 minutes in ICC base buffer.
Imaging is performed using Perkin Elmer Phenix Opera using a water 20× objective and recording 9 fields per well. Intensity readout at 488 nm is used as a measure of O-GlcNAcylation level of total proteins in wells. To assess potential toxicity of compounds nuclei were counted using the Hoechst staining. IC50-values are calculated using parametric non-linear regression model fitting. As a maximum inhibition Thiamet G at a 200 uM concentration is present on each plate. In addition, a concentration response of Thiamet G is calculated on each plate.

As usually defined, the Emax is the greatest response seen or fitted, relative to the assay's reference. In the case of `Cc1cc(O[C@@H]2CCCN(C(C)c3ccc4nccnc4c3)C2)cc(C)n1` (mixture of isomers) [compound 19], in assay [1], the Emax was determined as 100% and the IC50 was 6.92 nM. Also, the Emax in assay [2] (maximum = Thiamet G 200 uM) was found to be 73.3%. In addition, the EC50 in assay [2] was 1380 nM.
The like results for `Cc1cc(C[C@H]2CCN(C(C)c3ccc4sc(C)nc4c3)C2)cc(C)n1` (mixture of isomers) [compound 87] were, in that order, 101%, 58.9 nM, 28.6% and above 1000 nM.
`Cc1cc(C[C@H]2CCN(C(C)c3ccc4scnc4c3)C2)cc(C)n1` (mixture of isomers) [compound 88]: the Emax in assay [2] (maximum = Thiamet G 200 uM) was determined as 50.7%. In assay [2], the EC50 was 603 nM.
Regarding `Cc1cc(C[C@H]2CCN(C(C)c3ccc4c(c3)OCO4)C2)cc(C)n1` (mixture of isomers) [compound 93], the Emax was determined as 98.4% in assay [1] and 37.7% in assay [2] (maximum = Thiamet G 200 uM). Besides, the IC50 in assay [1] was 309 nM. Moreover, the EC50 in assay [2] is above 1000 nM.
As to `Cc1cc(CC2CCN(C(C)c3ccc4c(c3)OCCO4)C2)cc(C)n1.Cl.Cl` (mixture of isomers) [compound 95], in assay [1], the “Enzymatic Emax (%)” value is listed as 101% and the “Enzymatic hOGA; pIC50” value is 6.81. In addition, the “Cellular hOGA; pEC50” value in assay [2] was below 6. In addition, the “Cellular Emax (%)” value in assay [2] (maximum = Thiamet G 200 uM) is given as 38.2%.
As to `Cc1cc(C[C@H]2CCN(C(C)c3ccc4nccnc4c3)C2)cc(C)n1` (mixture of isomers) [compound 100], in assay [1], the Emax turned out to be 97% and the IC50 is 427 nM. For the same compound, in assay [2] (maximum = Thiamet G 200 uM), the maximum response (Emax) came to 23.1%. The EC50 in assay [2] was above 1000 nM.
The like results for `CC(=O)Nc1ncc(CN2CCC[C@H](Oc3ccnc(C)c3)C2)s1` (racemic) [compound 17] were, in that order, 100%, 64.6 nM, 96.2% and 389 nM.
For the compound `CC(=O)Nc1ncc(C(C)N2CCCC(COc3cc(C)nc(C)c3)C2)s1` (racemic) [compound 133], in assay [1], the Emax stood at 101% and the IC50 is 3.89 nM. Moreover, the Emax in assay [2] (maximum = Thiamet G 200 uM) amounted to 98.9%. Moreover, the EC50 in assay [2] was 11.2 nM.
For `Cc1cc(CC2CCCN(C(C)c3ccc4nccnc4c3)C2)cc(C)n1` (racemic) [compound 139], in that order: 101%, 10 nM, 75% and 170 nM.
Regarding `Cc1cc(CC2CCCN(C(C)c3ccc4c(c3)OCO4)C2)cc(C)n1` (racemic) [compound 141], in assay [1], the Emax was 102% and the IC50 was 11 nM. This compound also displayed an Emax in assay [2] (maximum = Thiamet G 200 uM) of 83.5%. Moreover, the EC50 in assay [2] was 87.1 nM.
With `Cc1cc(CC2CCCN(C(C)c3ccc4c(c3)OCCO4)C2)cc(C)n1` (racemic) [compound 142], the values for the Emax in assay [1] and in assay [2] (maximum = Thiamet G 200 uM) were 102% and 100%, respectively. Besides, the IC50 in assay [1] was 4.9 nM. The EC50 in assay [2] is 60.3 nM.
Regarding `CC(=O)Nc1ncc(CN2CCC[C@H](Cc3cnc(C)c(C)n3)C2)s1` [compound 124], in assay [1], the Emax was 100% and the IC50 was 1.74 nM.
For the compound `CC(=O)Nc1ncc(CN2CCC[C@H](Cc3ccc(C)nc3C#N)C2)s1` [compound 125], in assay [1], the maximal effect (Emax) came to 100% and the IC50 is 1.7 nM.
The like results for `Cc1cc(C[C@H]2CCCN(Cc3ccc4c(c3)OCO4)C2)cc(C)n1` [compound 146] were, in that order, 93.5% and 1000 nM.
The like results for `Cc1cc(C[C@H]2CCCN(Cc3cc4ccccc4n3C)C2)cc(C)n1` [compound 150] were, in that order, 20.8% and above 10000 nM.
The like results for `Cc1cc(C[C@H]2CCCN(Cc3nc4ccccc4[nH]3)C2)cc(C)n1` [compound 151] were, in that order, 2.86% and above 10000 nM.
As to `Cc1cc(C[C@H]2CCCN(Cc3nc4ccccc4n3C)C2)cc(C)n1` [compound 153], in assay [1], the Emax was 23.9% and the IC50 is above 10000 nM.
Regarding `CC(=O)Nc1ncc(CN2CC(COc3cc(C)nc(C)n3)CC(F)(F)C2)s1` (centres unmarked) [compound 161], in assay [1], the Emax amounted to 48% and the IC50 was above 10000 nM.
As to `CC(=O)Nc1ncc(CN2CCC(F)(F)C(COc3cc(C)nc(C)n3)C2)s1` (centres unmarked) [compound 162], in assay [1], the Emax was 91% and the IC50 is 1050 nM.
The like results for `CC(=O)Nc1ncc(CN2CCC(F)C(COc3cc(C)nc(C)n3)C2)s1` (centres unmarked) [compound 163] were, in that order, 101% and 63.1 nM.
For `CC(=O)Nc1ncc(CN2CCC[C@H](Cc3cc(C)nc(C)c3)C2)n1C` [compound 174], in that order: 40.9% and above 10000 nM.
